Reference: PubChem BioAssay AID330 (DTP/NCI, 2004)
Values joined by “and” are separate entries in the source; they are usually repeats but may differ in a detail not shown here. Equal entries are not always repeated. Toxic doses and inconclusive results are not listed. Rule for the calls: active = survival T/C of 150% or more; inactive = T/C below 125% in these data.

Test system: P388 leukemia ip, CD2F1 mice, survival T/C
Experiment: NCI In Vivo Anticancer Drug Screen. Data for tumor model P388 Leukemia (intraperitoneal) in CD2F1 (CDF1) mice
Conditions: endpoint: median survival time, higher = longer survival
Procedure, shortened: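 Mice carrying the transplanted tumor received test compound or vehicle. Survival was recorded in each group, and the value is the treated-group measurement divided by that of the vehicle-treated control group.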

Measured: T/C

NC(CSCc1ccccc1)C(=O)Nc1ccc([N+](=O)[O-])cc1 (stereo not given)
inactive: dose: 50.0 mg/kg/injection, schedule: Q01DX005 (ip), vehicle: Klucel (hydroxypropylcellulose) (HPC) 110 % of control | dose: 100.0 mg/kg/injection, schedule: Q01DX005 (ip), vehicle: Klucel (hydroxypropylcellulose) (HPC) 101 % of control | dose: 200.0 mg/kg/injection, schedule: Q01DX005 (ip), vehicle: Klucel (hydroxypropylcellulose) (HPC) 104 % of control

O=C(O)c1cccc(C(=O)O)c1O
inactive: dose: 50.0 mg/kg/injection, schedule: Q01DX001 (ip), vehicle: saline with Tween-80 102 % of control | dose: 50.0 mg/kg/injection, schedule: Q01DX009 (ip), vehicle: saline with Tween-80 100 % of control | dose: 100.0 mg/kg/injection, schedule: Q01DX001 (ip), vehicle: saline with Tween-80 105 % of control | dose: 100.0 mg/kg/injection, schedule: Q01DX009 (ip), vehicle: saline with Tween-80 103 % of control | dose: 200.0 mg/kg/injection, schedule: Q01DX001 (ip), vehicle: saline with Tween-80 110 % of control | dose: 200.0 mg/kg/injection, schedule: Q01DX009 (ip), vehicle: saline with Tween-80 94 % of control

C=C1C(=O)OC2CC(C)C3CC(O)OC(O)C3(C)CC12 (stereo not given)
inactive: dose: 1.56 mg/kg/injection, schedule: Q01DX009 (ip), vehicle: saline 115 % of control | dose: 3.12 mg/kg/injection, schedule: Q01DX009 (ip), vehicle: saline with Tween-80 102 % of control | dose: 3.13 mg/kg/injection, schedule: Q01DX009 (ip), vehicle: saline 117 % of control | dose: 6.25 mg/kg/injection, schedule: Q01DX009 (ip), vehicle: saline with Tween-80 107 % of control | dose: 12.5 mg/kg/injection, schedule: Q01DX009 (ip), vehicle: saline with Tween-80 99 % of control and 113 % of control

CCCCCCCCCCCCCCOCC(O)CN(CCO)CCO (stereo not given)
inactive: dose: 12.5 mg/kg/injection, schedule: Q01DX009 (ip), vehicle: saline 105 % of control | dose: 25.0 mg/kg/injection, schedule: Q01DX009 (ip), vehicle: saline 105 % of control | dose: 50.0 mg/kg/injection, schedule: Q01DX009 (ip), vehicle: saline 88 % of control and 98 % of control

O=C1c2ccccc2C(=O)N1CCCN1CCOCCOCCN(CCCN2C(=O)c3ccccc3C2=O)CCOCCOCC1
inactive: dose: 25.0 mg/kg/injection, schedule: Q04DX002 (ip), vehicle: saline + Tween-80 + alcohol 100 % of control | dose: 50.0 mg/kg/injection, schedule: Q04DX002 (ip), vehicle: saline + Tween-80 + alcohol 104 % of control | dose: 100.0 mg/kg/injection, schedule: Q04DX002 (ip), vehicle: saline + Tween-80 + alcohol 102 % of control and 95 % of control
